Results published in patent publication US5312815A, “Fungicidal (+)-2-(2,4-difluorophenyl)-3-methyl-1-(1H-1,2,4-triazol-1-yl)3-(6-(1H-1, 2,4-triazol-1-yl)pyridazin-3-ylthio) butan-2-ol” (Roussel Morishita Co., Ltd., priority 1992, dated 1994).

Key:
[1] = tested on: Aspergillus fumigatus Kawasaki strain; test: In vivo antifungal activity, Aspergillus fumigatus infected mice, oral; parameters: species or system mouse; conditions: 25 mg/kg p.o. twice a day, 4 days, in 0.5% MC (ITZ: in PEG 400)
Procedure: Asperoillus fumigatus Kawasaki strain having been cultured at 27° C. for 1 week was suspended in physiological saline, and the suspension (3×10^6 cells) was injected into the tail vein of a 4-week-old day male mouse (9 mice per group). Two days before the infection and on the day of the infection, 100 mg/kg of cyclophosphamide was intraperitoneally administered to each animal.
For comparison, compound (A) shown below which is described in EP 0421210A2, fluconazole (FCZ) and itraconazole (ITZ), were used as a comparative substance. Itraconazole was administered in a polyethylene glycol (400) solution. [drawing 4]

[2] = tested on: Aspergillus fumigatus Kawasaki strain; test: In vivo antifungal activity, Aspergillus fumigatus infected mice, i.v.; parameters: species or system mouse; conditions: 12.5 mg/kg i.v. twice a day, 4 days, Example 1 as G2-β-CyD complex, FCZ in saline
Procedure: Aspergillus fumigatus Kawasaki strain having been cultured at 27° C. for 1 week was suspended in physiological saline, and the cell suspension (3×10^6 cells) was injected into the tail vein of a 4-week-old day male mouse (9 mice per group). Two days before the infection and on the day of the infection, 100 mg/kg of cyclophosphamide was intraperitoneally administered to each animal.
(§1) For comparison, fluconazole was used as a comparative substance.

[3] = tested on: Candida albicans CAA-14 strain; test: In vivo antifungal activity, Candida albicans infected mice, i.v.; parameters: species or system ICR male mouse; conditions: 5 mg/kg i.v. twice a day, 2 days, Example 1 as G2-β-CyD complex, FCZ in saline
Procedure: Candida albicans CAA-14 strain having been cultured at 30° C. for 24 hours was suspended in physiological saline, and the cell suspension (5×10^6 cells) was injected into the tail vein of a 5-week-old ICR male mouse (9 mice per group). Two days before the infection and on the day of the infection, 100 mg/kg of cyclophosphamide was intraperitoneally administered to each animal.
as §1

[4] = Toxicity in maintained administration in rats; assay type: in vivo, Crj:CD male rat; conditions: 100 or 300 mg/kg once a day, 2 weeks, in 0.5% MC
Procedure: A 6-week-old Crj:CD male rat (6 rats per group) was maintained on the compound of Example 1 or fluconazole suspended in 0.5% MC at a dose of 100 mg/kg or 300 mg/kg once a day for 2 consecutive weeks. Manifestations of toxicity were observed through observation of general signs, body weight measurement, biochemical examination of blood, organ weight measurements, and postmortem examinations.

OC(Cn1cncn1)(Cn1cncn1)c1ccc(F)cc1F [FCZ, fluconazole, reference compound]
Mean Survival Days ([1]; 10 days observation): 2.0 days | Survival Number on Day 1 ([1]; of 9 mice): 9 | Survival Number on Day 2 ([1]; of 9 mice): 9 | Survival Number on Day 3 ([1]; of 9 mice): 0 | Mean Survival Days ([2]; 10 days observation): 2.0 days | Survival Number on Day 1 ([2]; of 9 mice): 9 | Survival Number on Day 2 ([2]; of 9 mice): 9 | Survival Number on Day 3 ([2]; of 9 mice): 0 | Mean Survival Days ([3]; 10 days observation): 6.3 days | Survival Number on Day 1 ([3]; of 9 mice): 9 | Survival Number on Day 2 ([3]; of 9 mice): 9 | Survival Number on Day 3 ([3]; of 9 mice): 8 | Survival Number on Day 4 ([3]; of 9 mice): 8 | Survival Number on Day 5 ([3]; of 9 mice): 8 | Survival Number on Day 6 ([3]; of 9 mice): 6 | Survival Number on Day 7 ([3]; of 9 mice): 3 | Survival Number on Day 8 ([3]; of 9 mice): 2 | Survival Number on Day 9 ([3]; of 9 mice): 2 | Survival Number on Day 10 ([3]; of 9 mice): 1 | manifestations of toxicity [4]: production of hepatomegaly and enlargement of the suprarenalcapsules, with the degree thereof depending on dosage
